The values that follow come from patent publication US8343964B2, “Indolic derivatives, their preparation processes and their uses in particular as antibacterials” (Universite Joseph Fourier, priority 2007, dated 2013).

In series [1] the test system is KB (human mouth carcinoma). As to the kind of experiment: In vitro cytotoxicity on KB cells. In kind it is cell-based. Conditions: concentration of 10^−5 M. How it is done:
(§1) The in vitro cytotoxicity results, measured at a concentration of 10^−5 M, are described below. The cytotoxicity was measured on 5 cell lines—KB (human mouth carcinoma), MCF7 (breast carcinoma) and MCF7R (resistant strain), Vero (monkey kidney) and HCT116 (human colon tumour).

Series [2] deals with S. aureus ITS-1199B (overexpression of the efflux pump NorA). Format: cell-based, Staphylococcus aureus. The settings on record: resistant strain R NorA; for MIC (μg/ml) of compound in the presence of ciprofloxacin at 8 μg/ml (c/2): ciprofloxacin 8 μg/ml (c/2); for MIC (μg/ml) of compound in the presence of ciprofloxacin at 4 μg/ml (c/4): ciprofloxacin 4 μg/ml (c/4). On the procedure: (§2) The two strains used are Staphylococcus aureus (ATCC 25923, sensitive Gram-positive strain) denoted S, and S. aureus ITS-1199 (without efflux), as well as its derivative S. aureus ITS-1199B (Kaatz, G. W., Seo, S. M., Antimicrob. Agents Chemother., 1995, 39, 2650-2655) having a resistance to the fluoroquinolones due to the overexpression of the efflux pump NorA and denoted R NorA. The bacteria are cultured at 37° C. in Mueller-Hinton (MH, Bio Rad) or Luria-Bertani (LB, Difco) Medium.
The experiences are carried out as above, but using the resistant strain, and looking at the effect of the mixture of the molecule to be tested and the antibiotic to which the bacterium is resistant. Thus, the method of a series of dilutions in Mueller-Hinton medium is used, also starting from a molecule concentration of 100 or 128 μg/ml.

Series [3] in a line: In vitro cytotoxicity on Vero cells. Format: cell-based. The settings on record: monkey, Vero cells (monkey kidney); concentration of 10^−5 M; read-out: Average cytotoxicity (% inhibition), Vero cells. On the procedure:
as §1

Series [4] in a line: In vitro cytotoxicity on HCT116 cells. The settings on record: human, HCT116 cells (human colon tumour); concentration of 10^−5 M; read-out: Average cytotoxicity (% inhibition), HCT116 cells. In kind it is cell-based. On the procedure:
as §1

Series [5] concerns Staphylococcus aureus (ATCC 25923, sensitive Gram-positive strain). The experiment in a line: Determination of the antibacterial activity: MIC in liquid Mueller-Hinton medium (intrinsic antibacterial activity). In kind it is cell-based. The settings on record: ATCC25923. How it is done:
as §2
The experiments described hereafter are carried out following the recommendations of the Comité de l'Antibiogramme de la Société Française de Microbiologic (http://www.sfm.asso.fr/nouv/general.php See also Courvalin, P., Goldstein, F., Philippon, A., Sirot J. L'antibiogramme, 1985, M.P.C.-Videom editor). The antibacterial activity of the molecules was determined in liquid medium using a Biomek 2000 robot (Beckman) and micro-titration plates. The final volume in each well is 200 μl. A maximum volume of 5 μl of a solution of the molecule in DMSO is added to each well containing 10^6 CFU/ml (Colony Forming Units) of bacteria in MH medium. The final concentration of the molecule to be tested must be 100 or 128 μg/ml. […] Ampicillin is used as a positive control and the same volume of DMSO as that used to introduce the molecule (generally 2 to 5 μl) as a negative control.
The experiments are repeated three times.

Series [6] is described as follows: In vitro cytotoxicity on MCF7 cells. Format: cell-based. The settings on record: human, MCF7 cells (breast carcinoma); concentration of 10^−5 M; read-out: Average cytotoxicity (% inhibition), MCF7 cells. On the procedure:
as §1

A further series is described as follows: in vitro. In kind it is cell-based. The settings on record: human. On the procedure:
as §1

What is called MIC is the lowest concentration that inhibits growth of the organism. Take `COc1ccc2[nH]cc(C(N)CNC(=O)OC(C)(C)C)c2c1` (stereo not shown) [(24), 1-amino-[2-N′-(tert-butoxycarbonyl)amino]-1-(5′-methoxy-3′-indolyl) ethane]: in series [1], the “Average cytotoxicity (% inhibition), KB cells” value was determined as 2%. Moreover, in series [2], the “MIC (μg/ml) of compound in the presence of ciprofloxacin at 8 μg/ml (c/2)” value (“MIC (μg/ml) of compound in the presence … (c/2)” below) worked out at 4 µg/mL. The cytotoxicity in series [3] came to 12%; in series [4], 13%. Moreover, the MIC in series [5] was ≤ 10 µg/mL.
In the case of `CC(C)(C)OC(=O)NCC(c1c[nH]c2ccccc12)N(O)Cc1ccccc1` (stereo not shown) [Compound (6)], the “Average cytotoxicity (% inhibition), KB cells” value in series [1] is 33.7%. Also, the “MIC (μg/ml) of compound in the presence of ciprofloxacin at 4 μg/ml (c/4)” value in series [2] is 4 µg/mL. In series [2], the “MIC (μg/ml) of compound in the presence … (c/2)” value came out at 2 µg/mL. Further, the cytotoxicity came to 13.1% in series [6], 16% in “in vitro”, 27% in series [3] and 29% in series [4].
Regarding `COc1ccc2[nH]cc(C(CNC(=O)OC(C)(C)C)N(O)Cc3ccccc3)c2c1` (stereo not shown) [Compound (7)], in series [1], the “Average cytotoxicity (% inhibition), KB cells” value stood at 15.6%. Besides, the cytotoxicity in series [6] came out at 9.7%; in the series “in vitro”, 10.1%; in series [3] it was 8%; in series [4], 10%.
Regarding `CC(C)(C)OC(=O)NCC(c1c[nH]c2ccc(Br)cc12)/[N+]([O-])=C/c1ccccc1` (stereo not shown) [Compound (20 bis), N-(benzylidene)-2-[N′-(tert-butoxycarbonyl)amino]-1-(5′-bromo-3′-indolyl) ethanamine N-oxide], in series [1], the “Average cytotoxicity (% inhibition), KB cells” value stood at 38.3%. Moreover, in series [2], the “MIC (μg/ml) of compound in the presence of ciprofloxacin at 4 μg/ml (c/4)” value was “c/2 = 1 c/4 = 1 μg/ml”. Moreover, the “MIC (μg/ml) of compound in the presence … (c/2)” value in series [2] was “c/2 = 1 c/4 = 1 μg/ml”. Besides, the cytotoxicity was 23.3% in series [6] and 38.1% in the series “in vitro”.
